Measured values taken from patent US11427869B2, “T cell balance gene expression, compositions of matters and methods of use thereof” (THE BROAD INSTITUTE, INC., priority 2015, dated 2022).

Tests used:
[1] = mice fed with a diet rich in PUFA (Monk et al., 2012, 2013); cited from earlier work
Rorγt = molecular target: T1, Rorγt (Mus musculus, UniProt P51450); assay: Dual luciferase reporter assay of Rorγt transcriptional activity in EL4 cells; type: cell-based; details: in the presence of an agonistic Rorγt ligand
T1 construct: expressed in transfected cells; host or cells: EL4 cells stably transfected with Rorγt vector
T1 sequence (P51450 1-495 isoform P51450-2): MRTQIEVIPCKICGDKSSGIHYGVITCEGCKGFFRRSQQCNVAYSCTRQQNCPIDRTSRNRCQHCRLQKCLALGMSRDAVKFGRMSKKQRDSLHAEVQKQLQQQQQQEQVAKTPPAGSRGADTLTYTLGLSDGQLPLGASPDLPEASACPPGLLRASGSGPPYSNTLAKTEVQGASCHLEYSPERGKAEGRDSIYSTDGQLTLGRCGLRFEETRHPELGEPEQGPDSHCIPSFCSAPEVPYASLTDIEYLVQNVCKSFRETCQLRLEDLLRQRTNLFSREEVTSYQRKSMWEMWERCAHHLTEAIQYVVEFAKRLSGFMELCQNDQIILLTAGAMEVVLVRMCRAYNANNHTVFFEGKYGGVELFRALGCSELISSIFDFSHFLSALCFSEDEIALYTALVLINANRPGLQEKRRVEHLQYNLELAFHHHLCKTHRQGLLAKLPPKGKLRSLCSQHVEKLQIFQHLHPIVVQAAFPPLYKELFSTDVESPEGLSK
Description: Cells and supernatant were harvested at 96 hours and subjected to MS/LC. Three independent mouse experiments were performed. […] All ChIP and luciferase assay are representative of at least 3 independent experiments.
Three independent experiments were performed.

SMILES: CCCCC/C=C\C/C=C\C/C=C\C/C=C\CCCC(=O)O [PUFA, arachidonic acid]
- severity of chronic colitis and Th17 cell polarization [1]: reduced severity of chronic colitis and Th17 cell polarization
- Il10 transactivation (Rorγt): enhanced Il10 transactivation
- Rorγt-mediated Il23r transactivation (Rorγt): inhibited Rorγt-mediated Il23r transactivation
